Tested on: SEM cells
Assay: cell viability relative to DMSO control; higher = less cytotoxic
Settings: 48 h
Method in brief: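 NOMO1 or SEM cells were plated at 500 cells/well and P12-Ichikawa cells at 1000 cells/well in 1536-well plates (5 μl), after each leukemia line had been adapted for at least four passages in each medium. Pin dosing delivered library compounds in DMSO at 11 threefold concentrations, 47 μM to 0.79 nM. CellTiter-Glo One luminescence was read after 48 h at 37°C. Viability is reported as a per-plate percentage of DMSO wells, with cell-free wells as background.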

[1] = HPLM + 10% dialyzed FBS, 0.000781 µM
[2] = HPLM + 10% dialyzed FBS, 0.00234 µM
[3] = HPLM + 10% dialyzed FBS, 0.00702 µM
[4] = HPLM + 10% dialyzed FBS, 0.0211 µM
[5] = HPLM + 10% dialyzed FBS, 0.0632 µM
[6] = HPLM + 10% dialyzed FBS, 0.19 µM
[7] = HPLM + 10% dialyzed FBS, 0.569 µM
[8] = HPLM + 10% dialyzed FBS, 1.71 µM
[9] = HPLM + 10% dialyzed FBS, 5.12 µM
[10] = HPLM + 10% dialyzed FBS, 15.4 µM
[11] = HPLM + 10% dialyzed FBS, 46.1 µM
[12] = RPMI 5 mM glucose + 10% FBS, 0.000781 µM
[13] = RPMI 5 mM glucose + 10% FBS, 0.00234 µM
[14] = RPMI 5 mM glucose + 10% FBS, 0.00702 µM
[15] = RPMI 5 mM glucose + 10% FBS, 0.0211 µM
[16] = RPMI 5 mM glucose + 10% FBS, 0.0632 µM
[17] = RPMI 5 mM glucose + 10% FBS, 0.19 µM
[18] = RPMI 5 mM glucose + 10% FBS, 0.569 µM
[19] = RPMI 5 mM glucose + 10% FBS, 1.71 µM
[20] = RPMI 5 mM glucose + 10% FBS, 5.12 µM
[21] = RPMI 5 mM glucose + 10% FBS, 15.4 µM
[22] = RPMI 5 mM glucose + 10% FBS, 46.1 µM
[23] = RPMI 5 mM glucose + 10% dialyzed FBS, 0.000781 µM
[24] = RPMI 5 mM glucose + 10% dialyzed FBS, 0.00234 µM
[25] = RPMI 5 mM glucose + 10% dialyzed FBS, 0.00702 µM
[26] = RPMI 5 mM glucose + 10% dialyzed FBS, 0.0211 µM
[27] = RPMI 5 mM glucose + 10% dialyzed FBS, 0.0632 µM
[28] = RPMI 5 mM glucose + 10% dialyzed FBS, 0.19 µM
[29] = RPMI 5 mM glucose + 10% dialyzed FBS, 0.569 µM
[30] = RPMI 5 mM glucose + 10% dialyzed FBS, 1.71 µM
[31] = RPMI 5 mM glucose + 10% dialyzed FBS, 5.12 µM
[32] = RPMI 5 mM glucose + 10% dialyzed FBS, 15.4 µM
[33] = RPMI 5 mM glucose + 10% dialyzed FBS, 46.1 µM

SMILES | cell viability [1] | cell viability [2] | cell viability [3] | cell viability [4] | cell viability [5] | cell viability [6] | cell viability [7] | cell viability [8] | cell viability [9] | cell viability [10] | cell viability [11] | cell viability [12] | cell viability [13] | cell viability [14] | cell viability [15] | cell viability [16] | cell viability [17] | cell viability [18] | cell viability [19] | cell viability [20] | cell viability [21] | cell viability [22] | cell viability [23] | cell viability [24] | cell viability [25] | cell viability [26] | cell viability [27] | cell viability [28] | cell viability [29] | cell viability [30] | cell viability [31] | cell viability [32] | cell viability [33]
CCN1C[C@H](C)[N]2C(=C(O)C3=C2\C(=N/N(CC4=CC=C(F)C(=C4)Cl)C3=O)C(=O)NC)C1=O | 104% | 103% | 105% | 107% | 106% | 102% | 109% | 50.4% | 98.5% | 100% | 94% | 115% | 115% | 117% | 103% | 110% | 106% | 105% | 18% | 100% | 103% | 98.9% | 101% | 121% | 125% | 117% | 125% | 121% | 122% | 51.6% | 115% | 112% | 105%
C[C@@H]1O[C@@H](O[C@H]2C[C@@H](O)[C@]3(CO)[C@H]4[C@H](O)C[C@]5(C)[C@@H](C6=CC(=O)OC6)CC[C@]5(O)[C@@H]4CC[C@]3(O)C2)[C@H](O)[C@H](O)[C@H]1O | 85.4% | 99.6% | 93.6% | 85.8% | 17.8% | 9.08% | 7.03% | 5.97% | 7.25% | 6.63% | 6.23% | 109% | 113% | 114% | 106% | 109% | 14.9% | 7.93% | 6.18% | 8% | 7.1% | 6.23% | 104% | 100% | 97.3% | 98.3% | 60% | 12.6% | 7.03% | 6.93% | 8.44% | 7.07% | 7.5%
CCN(CC)CCOc1ccc(Cc2ccccc2)cc1 | 102% | 101% | 110% | 88.4% | 92.2% | 102% | 104% | 89.4% | 87.1% | 75.9% | 46.6% | 107% | 98% | 98.9% | 102% | 95.5% | 102% | 91.9% | 88.4% | 44.9% | 11.8% | 9.79% | 108% | 102% | 101% | 113% | 93.8% | 110% | 104% | 101% | 85.1% | 19.4% | 16.9%
Cc1nn(C)c(COc2ccc(N3CCN([S+](=O)([O-])N(C)C)CC3)cc2)c1-c1cccc2c(CCCOc3cccc4ccccc34)c(C(=O)O)n(CCN3CCOCC3)c12 | 86% | 82.9% | 102% | 99.8% | 105% | 100% | 101% | 118% | 96.2% | 112% | 51.7% |  |  |  |  |  |  |  |  |  |  |  | 97.3% | 106% | 105% | 106% | 110% | 91.4% | 123% | 114% | 71% | 117% | 21.4%
N#CC(c1ccnc(NCCc2cccnc2)n1)c1nc2ccccc2s1 (stereo not given) | 110% | 122% | 118% | 117% | 126% | 136% | 134% | 131% | 144% | 137% | 115% | 105% | 105% | 144% | 125% | 133% | 118% | 124% | 132% | 140% | 132% | 120% |  |  |  |  |  |  |  |  |  |  | 
CCOc1cc2ncc(C#N)c(Nc3ccc(OCc4ccccn4)c(Cl)c3)c2cc1NC(=O)/C=C/CN(C)C | 109% | 122% | 126% | 122% | 111% | 107% | 19.4% | 9.21% | 7.03% | 6.73% | 4.72% | 87% | 95.4% | 83.4% | 80.8% | 79.7% | 31.9% | 7.35% | 5.75% | 5.48% | 4.73% | 3.12% | 119% | 133% | 117% | 116% | 121% | 95.9% | 16.9% | 8.13% | 6.73% | 6.47% | 4.68%
C[C@H]1C[C@H]2[C@@H]3CC[C@](O)(C(=O)CO)[C@@]3(C)C[C@H](O)[C@@H]2[C@@]\4(C)/C=C\C(=O)\C=C14 | 78.4% | 85% | 76.7% | 87.1% | 86.2% | 75.6% | 57.1% | 41.3% | 47.4% | 46.9% | 42.6% | 76.9% | 104% | 90% | 101% | 90.5% | 102% | 71.3% | 39.2% | 51.5% | 51.2% | 40.2% | 90.6% | 92.4% | 101% | 95.7% | 93.2% | 96.3% | 72.1% | 40.9% | 45.7% | 45% | 33.3%
C/C(=N\NC(=S)N1CCC1)c1ccccn1 | 98.2% | 65.1% | 24% | 16.3% | 8.49% | 7% | 6.15% | 4.65% | 3.75% | 2.98% | 4.69% | 102% | 77.1% | 23.7% | 12.9% | 6.82% | 6.63% | 5.22% | 3.59% | 2.32% | 1.6% | 3.57% | 110% | 53.4% | 19.2% | 15.8% | 6.49% | 6.19% | 5.7% | 4.26% | 3.13% | 1.84% | 2.93%
N[S+](=O)([O-])c1cc2c(cc1Cl)NC(C(Cl)Cl)N[S+]2(=O)[O-] (stereo not given) | 89% | 95.6% | 98.8% | 86.3% | 105% | 103% | 102% | 91.5% | 111% | 116% | 111% | 103% | 110% | 90.3% | 107% | 114% | 113% | 122% | 123% | 115% | 129% | 109% | 95.1% | 108% | 113% | 102% | 124% | 122% | 121% | 132% | 142% | 106% | 125%
O=C(O)CCCCC(CCSCc1ccccc1)SCc1ccccc1 (stereo not given) | 87.7% | 116% | 111% | 110% | 104% | 115% | 113% | 131% | 111% | 119% | 102% | 106% | 102% | 91.5% | 101% | 118% | 124% | 110% | 121% | 115% | 107% | 99.6% | 100% | 106% | 121% | 138% | 116% | 117% | 108% | 125% | 117% | 108% | 93.5%
CC(C)=CCC/C(C)=C/CC/C(C)=C/CSc1ccccc1C(=O)O | 97.5% | 116% | 111% | 97.3% | 93.2% | 81.2% | 80% | 67.3% | 58.3% | 30.3% | 8.4% | 118% | 124% | 111% | 119% | 117% | 106% | 96.6% | 71.8% | 62.4% | 22.3% | 2.67% | 94.6% | 105% | 84.7% | 106% | 97.8% | 99.1% | 74.8% | 71.2% | 62.5% | 33.8% | 8.59%
CC1=C(/C=C/C(C)=C/C=C/C(C)=C\C(=O)O)C(C)(C)CCC1 | 82.8% | 84.8% | 67.9% | 103% | 98.1% | 96.7% | 101% | 91.5% | 44.3% | 80.1% | 78.5% | 85% | 93.2% | 77.5% | 112% | 99.5% | 107% | 108% | 107% | 46.1% | 98.2% | 106% | 68.1% | 78.3% | 64.2% | 93.2% | 95.3% | 107% | 83.4% | 75.8% | 41.6% | 77.8% | 85.8%
O=C(Nc1c[nH]nc1-c1nc2cc(CN3CCOCC3)ccc2[nH]1)NC1CC1 | 92.3% | 85.9% | 103% | 87.9% | 40.6% | 45.9% | 26% | 16% | 6.08% | 3.77% | 2.78% | 96.7% | 90% | 107% | 101% | 22.7% | 22.5% | 17.1% | 10.4% | 3.98% | 2.18% | 2.92% | 95.1% | 93.5% | 110% | 77.2% | 26.9% | 26.8% | 22% | 11.7% | 4.09% | 2.03% | 3.29%
CCCC(C)(COC(N)=O)COC(=O)NC(C)C (stereo not given) | 87.5% | 95.9% | 117% | 111% | 139% | 120% | 120% | 131% | 126% | 123% | 130% | 97.3% | 113% | 140% | 138% | 127% | 148% | 147% | 163% | 134% | 149% | 160% | 88% | 121% | 144% | 150% | 138% | 128% | 156% | 143% | 139% | 164% | 153%
